Article PMC6999911, “New 2-Ethylthio-4-methylaminoquinazoline derivatives inhibiting two subunits of cytochrome bc1 in Mycobacterium tuberculosis” (PLoS Pathogens, 2020)
Converted amounts (≈) assume the structure as drawn. Like-named read-outs stand apart in the source and are kept apart here.

Legend:
[1] = microsomes
[2] = tested on: Corynebacterium glutamicum ATCC13032; test: MIC, different organisms; type: cell-based
[3] = tested on: Mycobacterium canettii STB-L; test: MIC, different organisms; type: cell-based; conditions: Mycobacterium canetti
[4] = in vitro; conditions: human, microsomes
[5] = tested on: Mycobacteroides abscessus subsp. bolletii 1999–0888; test: MIC, different organisms; type: cell-based
[6] = tested on: Mycobacterium smegmatis mc^2155; test: MIC, different organisms; type: cell-based; conditions: Mycolicibacterium smegmatis
[7] = tested on: Mycobacteroides abscessus subsp. abscessus 2005–0524; test: MIC, different organisms; type: cell-based
[8] = tested on: Bacillus subtilis; test: MIC, different organisms; type: cell-based
[9] = tested on: Salmonella typhimurium; test: MIC, different organisms; type: cell-based; conditions: Salmonella enterica
[10] = tested on: Mycobacterium marinum Strain M; test: MIC, different organisms; type: cell-based
[11] = tested on: Escherichia coli PQ37; test: MIC, different organisms; type: cell-based
[12] = tested on: Pseudomonas aeruginosa; test: MIC, different organisms; type: cell-based
[13] = tested on: Micrococcus luteus; test: MIC, different organisms; type: cell-based
[14] = tested on: Mycobacterium avium ATCC15769; test: MIC, different organisms; type: cell-based
[15] = tested on: Mycobacteroides abscessus subsp. massiliense 2005–0484; test: MIC, different organisms; type: cell-based
[16] = tested on: HepG2 cells; type: cell-based, Human; conditions: for Selective index TD50/MIC: HepG2 TD50 / H37Rv MIC; for HepG2 TD99: Toxic dose that inhibits 99% of cell growth, 3 days
Description: Human HepG2 cells (ATCC HB-8065, 4000 cells/well) were incubated for 3 days with two-fold serially diluted compounds at 37°C, under an atmosphere of 5% CO2. Cell viability was determined by the addition of resazurin (0.0025% w/v) for 5 h at 37°C and the fluorescence intensity measured as in REMA.

[17] = tested on: THP-1 macrophages infected with M.tb H37Rv; test: Ex vivo drug susceptibility in infected THP-1 macrophages; type: cell-based; conditions: Mycobacterium tuberculosis; THP-1 macrophages infected with H37Rv, 48h
[18] = tested on: Listeria monocytogenes; test: MIC, different organisms; type: cell-based
[19] = tested on: Mycolicibacterium vaccae ATCC 15483; test: MIC, different organisms; type: cell-based; conditions: ATCC15483
[20] = tested on: Mycobacterium tuberculosis Erdman; test: MIC, different organisms; type: cell-based
[21] = tested on: Mycobacterium tuberculosis MDR 59744; test: MIC, different organisms; type: cell-based
[22] = tested on: Staphylococcus aureus; test: MIC, different organisms; type: cell-based
[23] = tested on: Corynebacterium diphtheriae; test: MIC, different organisms; type: cell-based
[24] = tested on: Pseudomonas putida; test: MIC, different organisms; type: cell-based
[25] = tested on: Candida albicans; test: MIC, different organisms; type: cell-based
[26] = tested on: Mycobacterium tuberculosis HN878; test: MIC, different organisms; type: cell-based
[27] = tested on: Mycobacterium bovis BCG Pasteur; test: microbe, parasite or virus in culture; type: cell-based; conditions: Mycobacterium tuberculosis variant bovis BCG
[28] = tested on: Enterococcus faecalis; test: MIC, different organisms; type: cell-based
[29] = tested on: non-replicating, streptomycin-starved strain 18b; test: Activity against non-replicating strain 18b (model for latent TB); type: cell-based, Mycobacterium tuberculosis; conditions: streptomycin-starved 18b
[30] = tested on: cydB and lipU in M. tb H37Rv; type: cell-based, Mycobacterium tuberculosis; conditions: M. tb H37Rv exposed to 11626252, 4 h
[31] = tested on: H37Rv; type: cell-based, Mycobacterium tuberculosis; conditions: 2.5X MIC, 24 h, compared to untreated controls
[32] = tested on: M. tb H37Rv; type: cell-based; conditions: 1X - 32X MIC, 7 days
[33] = tested on: M. tb H37Rv ΔcydAB; type: cell-based; conditions: ΔcydAB strain of M. tb H37Rv, even after CCCP
[34] = tested on: M. tb H37Rv ΔcydAB; type: cell-based; conditions: 8X MIC, 32X MIC, 7 days, d.l. = limit of detection
[35] = tested on: M. tb H37Rv; type: cell-based; conditions: 11626252 8.4 μM (100x the MIC50)
[36] = tested on: M. tb H37Rv South Africa; test: Acute model of murine TB; type: in vivo, Mycobacterium tuberculosis; conditions: Balb/c mice
[37] = Mycobacterium canettii STB-L, read-out: MIC

Compound | Human microsome stability, clearance class [1] | MIC [2] | microsomal CLint [4] | MIC [5] | MIC [6] | MIC [7] | MIC [8] | MIC [9] | MIC [10] | MIC [11] | MIC [12] | MIC [13] | MIC [14] | MIC [15] | Selective index TD50/MIC [16] | HepG2 TD99 [16] | MIC [18] | MIC [19] | MIC [20] | MIC [22] | further results
CNc1nc(SCc2ccccc2)nc2cccc(F)c12 |  |  |  |  |  |  |  |  |  |  |  |  |  |  |  |  |  |  |  |  | melting point: 101 to 104 °C
CCSc1nc(NC)c2cc(C(F)(F)F)ccc2n1 |  |  |  |  |  |  |  |  |  |  |  |  |  |  |  |  |  |  |  |  | melting point: 161 to 163 °C
CCSc1nc(NC)c2ccccc2n1 [Compound 11626141] | high | 66.8 µg/mL (≈ 305 µM) | 120 µL/min/mg | ≥ 100 µg/mL | 38.4 µg/mL (≈ 175 µM) | 62.4 µg/mL (≈ 285 µM) | ≥ 100 µg/mL | ≥ 100 µg/mL | 0.1 µg/mL (≈ 0.456 µM) | ≥ 100 µg/mL | ≥ 100 µg/mL | ≥ 100 µg/mL | ≥ 100 µg/mL | ≥ 100 µg/mL | 575 | 53 µg/mL | ≥ 100 µg/mL | ≥ 100 µg/mL | 0.01 µg/mL (≈ 0.0456 µM) | ≥ 100 µg/mL | MIC [3, 37]: 0.05 µg/mL (≈ 0.228 µM); IC50 [17]: 0.013 µg/mL (≈ 0.0593 µM); MIC ([21]; MDR59744, read-out: MIC): 0.02 µg/mL (≈ 0.0912 µM); MIC [23]: ≥ 100 µg/mL; MIC [24]: ≥ 100 µg/mL; MIC [25]: ≥ 100 µg/mL; MIC [26]: 0.05 µg/mL (≈ 0.228 µM); MIC [27]: 0.9 µg/mL (≈ 4.1 µM); MIC [28]: ≥ 100 µg/mL; Activity against non-replicating strain 18b [29]: no activity
CCNc1nc(SCC)nc2ccccc12 [Compound 11626142] | high | 75 µg/mL (≈ 321 µM) | 122 µL/min/mg | ≥ 100 µg/mL | 75.6 µg/mL (≈ 324 µM) | 100 µg/mL (≈ 429 µM) | ≥ 100 µg/mL | ≥ 100 µg/mL | 0.8 µg/mL (≈ 3.43 µM) | ≥ 100 µg/mL | ≥ 100 µg/mL | ≥ 100 µg/mL | 49.1 µg/mL (≈ 210 µM) | ≥ 100 µg/mL | 100 | 26 µg/mL | ≥ 100 µg/mL | ≥ 100 µg/mL | 0.1 µg/mL (≈ 0.429 µM) | ≥ 100 µg/mL | MIC [3, 37]: 0.2 µg/mL (≈ 0.857 µM); IC50 [17]: 0.012 µg/mL (≈ 0.0514 µM); MIC ([21]; MDR59744, read-out: MIC): 0.09 µg/mL (≈ 0.386 µM); MIC [23]: 44.3 µg/mL (≈ 190 µM); MIC [24]: ≥ 100 µg/mL; MIC [25]: 44.3 µg/mL (≈ 190 µM); MIC [26]: 0.2 µg/mL (≈ 0.857 µM); MIC [27]: 0.8 µg/mL (≈ 3.43 µM); MIC [28]: ≥ 100 µg/mL; Activity against non-replicating strain 18b [29]: no activity
CCSc1nc(NC)c2cccc(F)c2n1 [Compound 11626252] | medium | 47.2 µg/mL (≈ 199 µM) | 18.1 µL/min/mg | ≥ 100 µg/mL | 32.3 µg/mL (≈ 136 µM) | ≥ 100 µg/mL | ≥ 100 µg/mL | ≥ 100 µg/mL | 0.007 µg/mL (≈ 0.0295 µM) | ≥ 100 µg/mL | ≥ 100 µg/mL | ≥ 100 µg/mL | ≥ 100 µg/mL | ≥ 100 µg/mL | 1950 | > 100 µg/mL | ≥ 100 µg/mL | ≥ 100 µg/mL | 0.02 µg/mL (≈ 0.0843 µM) | ≥ 100 µg/mL | expression of cydB and lipU (qRT-PCR) [30]: Overexpression; remaining relative ATP level [31]: 19.81±8.125%; MIC [3, 37]: 0.03 µg/mL (≈ 0.126 µM); static or cidal activity by CFU enumeration [32]: bacteriostatic; IC50 [17]: 0.011 µg/mL (≈ 0.0464 µM); oxygen consumption rate (OCR) after exposure [33]: rapid and sustained decrease; log10 CFU/mL [34]: < d.l.; MIC ([21]; MDR59744, read-out: MIC): 0.02 µg/mL (≈ 0.0843 µM); MIC [23]: ≥ 100 µg/mL; MIC [24]: ≥ 100 µg/mL; MIC [25]: ≥ 100 µg/mL; MIC [26]: 0.03 µg/mL (≈ 0.126 µM); MIC [27]: 1.6 µg/mL (≈ 6.74 µM); MIC [28]: ≥ 100 µg/mL; oxygen consumption rate (OCR) after exposure [35]: increased; Activity against non-replicating strain 18b [29]: no activity
CCSc1nc(NC)c2ccc(F)c(F)c2n1 [Compound 11726148] | medium |  | 28.7 µL/min/mg |  |  |  |  |  |  |  |  |  |  |  | 780 | > 100 µg/mL |  |  |  |  | melting point: 186 to 189 °C; decrease of bacterial burden in the lungs ([36]; 150 mg/kg gavage daily for 10 days, vs untreated TPGS control, p-value 0.004): 0.51 log10 CFU/organ
NNC(=O)c1ccncc1 [INH, isoniazid, reference compound] |  |  |  |  |  |  |  |  |  |  |  |  |  |  |  |  |  |  |  |  | log10 CFU per lung ([36]; INH 25mg/kg gavage, 10 days, d.l. = limit of detection): < d.l.
CO[C@H]1/C=C/O[C@@]2(C)Oc3c(C)c(O)c4c(O)c(c(/C=N/N5CCN(C)CC5)c(O)c4c3C2=O)NC(=O)/C(C)=C\C=C\[C@H](C)[C@H](O)[C@@H](C)[C@@H](O)[C@@H](C)[C@H](OC(C)=O)[C@@H]1C [RIF, rifampicin, reference compound] |  | 0.004 µg/mL (≈ 0.00486 µM) |  | 24.8 µg/mL (≈ 30.1 µM) | 0.9 µg/mL (≈ 1.09 µM) | 18.1 µg/mL (≈ 22 µM) | 0.3 µg/mL (≈ 0.365 µM) | 0.8 µg/mL (≈ 0.972 µM) | 0.2 µg/mL (≈ 0.243 µM) | 6.5 µg/mL (≈ 7.9 µM) | 0.2 µg/mL (≈ 0.243 µM) | 0.2 µg/mL (≈ 0.243 µM) | 27.3 µg/mL (≈ 33.2 µM) | 9.5 µg/mL (≈ 11.5 µM) |  |  | 0.6 µg/mL (≈ 0.729 µM) | 6.6 µg/mL (≈ 8.02 µM) | 0.001 µg/mL (≈ 0.00122 µM) | 1.4 µg/mL (≈ 1.7 µM) | MIC [3]: 0.001 µg/mL (≈ 0.00122 µM); MIC ([21]; MDR59744): ≥ 10 µg/mL; MIC [23]: 0.5 µg/mL (≈ 0.608 µM); MIC [24]: 3 µg/mL (≈ 3.65 µM); MIC [25]: 2.2 µg/mL (≈ 2.67 µM); MIC [26]: 0.0006 µg/mL (≈ 0.000729 µM); MIC [27]: 0.0008 µg/mL (≈ 0.000972 µM); MIC [28]: 3.9 µg/mL (≈ 4.74 µM)
